Five molecules from patent US20110046130A1, “TETRAHYDRONAPHTHYRIDINES AND AZA DERIVATIVES THEREOF AS HISTAMINE H3 RECEPTOR ANTAGONISTS” (Evotec AG, priority 2008, published 2011) can be followed below.

T1 sequence (Q9Y5N1 whole entry): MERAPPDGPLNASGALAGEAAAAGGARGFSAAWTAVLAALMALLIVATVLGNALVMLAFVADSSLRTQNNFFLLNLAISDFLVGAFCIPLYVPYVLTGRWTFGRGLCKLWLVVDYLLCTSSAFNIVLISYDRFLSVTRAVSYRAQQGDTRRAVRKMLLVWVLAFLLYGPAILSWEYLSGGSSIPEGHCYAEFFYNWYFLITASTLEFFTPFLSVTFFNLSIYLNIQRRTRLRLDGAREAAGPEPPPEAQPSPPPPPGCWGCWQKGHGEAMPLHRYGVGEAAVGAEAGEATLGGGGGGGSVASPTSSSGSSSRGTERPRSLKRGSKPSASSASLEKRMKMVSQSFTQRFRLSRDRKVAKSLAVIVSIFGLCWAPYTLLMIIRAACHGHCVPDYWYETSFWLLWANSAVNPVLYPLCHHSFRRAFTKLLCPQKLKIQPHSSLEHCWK

The test concerns the target T1, human H3 receptors (Homo sapiens, UniProt Q9Y5N1).
T1 construct: host or cells: CHO-K1
The test is described as follows: cAMP quantification protocol for human H3 receptor testing. It counts as cell-based. As to conditions: inhibition of agonist-induced (100 nM histamine, 10 μM forskolin) decrease of intracellular cAMP; CHO-K1 cell line expressing human H3 receptors; read-out: Potency range (IC50 values). The protocol: CHO-K1 cell line expressing human H3 receptors were purchased from Euroscreen (Gosselies, Belgium, Cat. no.: ES-392-C)
Human H3 receptor-expressing cell-lines were grown in Ham's F12 [Sigma, Cat. no. N6658], supplemented with 10% FBS [Sigma, Cat. no. F9665], 400 μg/ml G418 [Sigma, Cat. no. N1876] and 250 μg/ml Zeocin [Invitrogen, Cat. no. 46-0509]) according to the protocol provided by Euroscreen.
cAMP Quantification Protocol for Human H3 Receptor Testing
The assay measures the ability of test compounds to inhibit Histamine receptor agonist-induced decrease of intracellular free cAMP (receptor is Gi coupled).
Specifically, a cAMP quantification assay system from DiscoveRx (cAMP XS+; Cat. no. 90-0075) was used.
For the cAMP assay, confluent cells were detached from the culture vessels with 1× trypsin-EDTA solution (Sigma), and seeded into 384-well Costar plates (white, clear bottom, Cat. no. 3707) at a density of 10,000 cells per well. Cells were seeded in a volume of 50 μl in medium without antibiotics and incubated overnight in a humidified atmosphere with 5% CO2 at 37° C. The cAMP assay was performed according to the protocol provided by DiscoveRx.
The cell culture medium was removed and the cells washed once with PBS (50 μl per well). The plates were emptied by inversion and 7.5 μl/well of compound in PBS (containing 1 mM IBMX and 0.03% BSA) were added and incubated for 30 min at 37° C.
Subsequent 7.5 μl/well specific agonist solution was added and the plates for another 30 min incubated at 37° C.
The following agonist solution is used:
100 nM histamine, 10 μM forskolin in PBS (containing 1 mM IBMX and 0.03% BSA)
After the incubation with the agonist, 5 μl/well cAMP XS antibody solution was added followed by 20 μl/well Gal/EII/Lysis(1:5:19)+ED (1:1). The plates were incubated for one hour at room temperature and afterwards 20 μl/well EA reagent was added. The luminescence was developed for approximately three hours at room temperature and the plates were read out using a ‘BMG Novostar’ plate reader.
Test compounds were assayed at 8 concentrations in triplicate. Serial 10-fold dilutions in 100% DMSO were made at a 100-times higher concentration than the final concentration and then diluted with a 2 step protocol in assay buffer to reach the required assay concentrations and 1% DMSO.
Regarding `O=C1CCCC2c3ccc(OC4CCN(C5CCCCC5)CC4)nc3CCN12` (centres unmarked) [Example 22, 3-[(1-Cyclohexylpiperidin-4-yl)oxy]-5,6,9,10,11,11a-hexahydro-8H-pyrido[2,1-f][1,6]naphthyridin-8-one], the IC50 was below 100 nM.
As to `CC(C)N1CCC(Oc2ccc3c(n2)CCN2C(=O)CCCC32)CC1` (centres unmarked) [Example 15, 3-{[1-(1-methylethyl)piperidin-4-yl]oxy}-5,6,9,10,11,11a-hexahydro-8H-pyrido[2,1-f][1,6]naphthyridin-8-one], the IC50 was below 100 nM.
Under `O=C1CCCC2c3ccc(OC4CCN(CC5CC5)CC4)nc3CCN12` (centres unmarked) [Example 33, 3-{[1-(cyclopropylmethyl)piperidin-4-yl]oxy}-5,6,9,10,11,11a-hexahydro-8H-pyrido[2,1-f][1,6]naphthyridin-8-one] stands below 100 nM.
`O=C1CCCC2c3ccc(OCCCN4CCCCC4)nc3CCN12` (centres unmarked) [Example 19, 3-(3-piperidin-1-ylpropoxy)-5,6,9,10,11,11a-hexahydro-8H-pyrido[2,1-f][1,6]naphthyridin-8-one]: the IC50 is below 100 nM.
`O=C1CCCC2c3ccc(OCCCCN4CCCCC4)nc3CCN12` (centres unmarked) [Example 25, 3-(4-piperidin-1-ylbutoxy)-5,6,9,10,11,11a-hexahydro-8H-pyrido[2,1-f][1,6]naphthyridin-8-one]: the IC50 was in the range of 100 to 500 nM.

What is called IC50 is the concentration needed to halve the response being measured.
